From patent US7435555B2, “Asparagine hydroxylation of the CAD domain of a HIF protein” (Adelaide Research and Innovation Pty Ltd., priority 2001, dated 2008)

Legend:
Type in all cases: cell-based, human
[1] = system: Gal4DBD/HIF-2α 774-874 CAD chimera; test: Gal4 response element luciferase reporter gene assay, GalDBD/HIF-2α CAD chimera; details: cells treated 16 h at normoxia
From the text: FIG. 3. Expression vectors for either the Gal4 DNA Binding Domain or the indicated GalDBD HIF-1α and HIF-2α CAD chimeric proteins were contransfected with a Gal4 response element containing luciferase reporter gene and an internal control renilla luciferase reporter gene. […] Data are the average of three transfections±standard deviation.
FIG. 6. […] A) Sequence comparisons show conservation of the critical Asn between HIF-1α and HIF-2α across species. […] HEK293T cells were transfected according to the protocol of FIG. 3A and data represent the average of triplicate transfections +/standard deviation. (C). The wild type and mutant Ga14DBD/HIF chimeras used in A) are expressed at the same levels during transient transfection. Whole cell extracts of control or transfected cells were separated by SDS-PAGE and proteins detected by immunoblotting with antibodies directed against the C-terminus of HIF-1α (C) or HIF2α.
Human embryonic kidney 293T and rat pheochromocytoma PC12 cells were maintained in Dulbecco's Modified Eagles Medium (DMEM) supplemented with 10% foetal calf serum. For transient transfections, cells were plated onto 24 well plates at a density of 2.0×10^4 cells/well. […] After 16 hrs treatment, cells were harvested, Iysed and extracts analysed using the Dual Luciferase Reporter Assay Kit as outlined by the manufacturer (Promega). […]

[2] = system: HIF-2α CAD Asn851 hydroxylation; test: Mass spectrometry of HIF-2α CAD purified from stable 293T cells (hydroxylation of Asn851); details: DP 100 μM, 3 h; MALDI-TOF
Experimental: FIG. 5. A) Mass spectrometry of the HIF-2α CAD purified from cells incubated in normoxia or subjected to hypoxia (<1% O2, 3 h) or DP (100 μM, 3 h) treatments. A & B) Magnified views of the MALDI-TOF spectra corresponding to hydroxylation (+16 Da) of the peptide […] [SED ID NO. 1], which appears in the normoxic but not hypoxic or DP treated samples. […] Fragments were also observed for the modified sequence at m/z values of +16 Da higher than Asn851-containing fragments of the unmodified sequence. The boundary of the coincident and +16 Da fragment ions is indicated by the symbol N+ on the fragment ion spectrum of the modified sequence.
Samples for MS analysis were isolated from a 293T stable cell line that expressed HIF-2α774-874. After normoxic culture or treatment with hypoxia or DP as specified, cells were washed once with PBS, then lysed with binding buffer (100 mM Na-Phosphate pH8.0, 8M Urea, 0.1% NP40, 0.15M NaCl2, 5 mM imidazole, 1 mM βMe, 0.05 mM Na3VO4, 0.1 mM NaF, 0.5 mM β-Glycerophosphate, protease inhibitors). […]
Tryptic digests were analyzed using a Bruker Reflex MALDI-TOF-MS operated in the positive ion reflector mode. MALDI-TOF-MS data were acquired and analyzed using the Bruker XMass suite of software (Lopaticki et al., 1998; Pitt et al., 2000; Gorman et al., 1997). […]

[3] = system: HIF-2α CAD; test: Immunoblot of HIF-2α CAD protein expression in stable transfected HEK 293T cells; details: treatment 3 h, anti-myc immunoblot
From the text: FIG. 4. A) Schematic showing domains of HIF-2α and the construct containing the CAD region fused to a 6xHis tag/myc epitope which was used to generate a stable expressing cell line. B) Protein expression of the HIF-2α CAD is not increased by hypoxia or DP treatment. […] The 293T control lane contains extract from cells stably transfected with blank expression vector. C) Sypro-Ruby (Bio-Rad) stained SDSPAGE gel showing an example of HIF-2α CAD purified from stable transfected cells. Extracts from non transfected cells subjected to the same purification procedure lack the HIF-2α CAD band.The higher molecular weight contaminant that is co-purified by the procedure was identified as 60S ribosomal protein L27A by mass spectrometry.
Isolated cell pellets were lysed in whole cell extract (WCE) buffer (10 mM Tris pH7.9, 0.42M NaCl2, 0.5% NP40, 25% Glycerol, 0.2 mM EDTA, 1.5 mM MgCl2, 1 mM DTT, protease inhibitors) for 10 min at 4° C. Lysed extracts were then clarified by centrifugation at 12,000 g for 15 min. The protein concentration of clarified lysates was determined using the Bradford assay (Biorad). Protein samples were then resolved on 12.5% Tris-Tricine gels. For the HIF-2α774-874 stable line, 10 μg of WCE was analysed by immunoblotting with the anti-myc 9E10 monoclonal antibody. […]

[4] = system: Gal4DBD/HIF-1α 727-826 CAD chimera; test: Gal4 response element luciferase reporter gene assay, GalDBD/HIF-1α CAD chimera; details: cells treated 16 h at normoxia

SMILES | activity of the Gal4DBD/HIF-2α CAD chimera on treatment of cells [1] | +16 Da (hydroxylated) form of peptide 846-YDCEVNVPVPGSSTLLQGR-864 [2] | protein expression of the HIF-2α CAD [3] | activity of the Gal4DBD/HIF-1α CAD chimera on treatment of cells [4]
c1ccc(-c2ccccn2)nc1 [DP, 2,2′-dipyridyl] | induces activity of the CADs | complete lack of the +16 mass increase | not increased | 
COC(=O)CNC(=O)C(=O)OC [DMOG, dimethyl-oxalylglycine] | activation of the Gal4DBD/HIF-1α and Gal4DBD/HIF-2α CAD chimeras to a similar extent as that seen during treatment with hypoxia |  |  | activation of the Gal4DBD/HIF-1α and Gal4DBD/HIF-2α CAD chimeras to a similar extent as that seen during treatment with hypoxia
